Values of other authors, collected in EP1707213A1, “Herbal composition for the treatment of cutaneous Erythema” (Kern, Elisabeth, priority 2005, dated 2006).
Read-outs that look alike come from different tables or passages of the source. Values belong to the molecule of their own block, whether it stands above or below them.

Columns and labels:
[1] = test system: Patienten
[2] = test system: durch Doxil induziertes Hand-Fuß-Syndrom; conditions: patients with hand-foot syndrome of Grade 2 bis 4 under Doxil

palmoplantare Erythrodysästhesie als häufigste Nebenwirkung ([1]; in vivo): 50 % der Patienten
Structure (SMILES): CCCCCOC(=O)Nc1nc(=O)n([C@@H]2O[C@H](C)[C@@H](O)[C@H]2O)cc1F [Capecitabin, N4-Pentyloxycarbonyl-5'desoxy-Fluorocytidin]

Structure (SMILES): C[C@@H]1C[C@H]2[C@@H]3CCC4=CC(=O)C=C[C@]4(C)[C@@]3(F)[C@@H](O)C[C@]2(C)[C@@]1(O)C(=O)CO [Dexamethason]
Fortführung der Chemotherapie mit der ursprünglichen Dosierung von Doxil [2]: möglich

Structure (SMILES): O=c1[nH]cc(F)c(=O)[nH]1 [Zusammensetzung 5-FU, 5-Fluorouracil]
palmoplantare Erythrodysästhesie als häufigste Nebenwirkung ([1]; use as cytostatic): 50 % der Patienten
